Here are results for one compound from ChEMBL document CHEMBL5150060 (J Med Chem, 2022).

Usually Ki stands for the equilibrium dissociation constant of an inhibitor or competing ligand from its target.

The test system of one data set is HEK293. The experiment in a line: Cytotoxicity against HEK293 cells assessed as reduction in cell viability at 50 uM after 24 hrs by alamar blue assay. The settings on record: human, hek293, 24 h. Type of data set: toxicity, cell-based. (The colour change of resazurin is a common sign of viable cells or microbes.)
Data set [1] concerns the target T1, Histone deacetylase 8 (Homo sapiens) (UniProt Q9BY41).
T1 sequence (whole entry): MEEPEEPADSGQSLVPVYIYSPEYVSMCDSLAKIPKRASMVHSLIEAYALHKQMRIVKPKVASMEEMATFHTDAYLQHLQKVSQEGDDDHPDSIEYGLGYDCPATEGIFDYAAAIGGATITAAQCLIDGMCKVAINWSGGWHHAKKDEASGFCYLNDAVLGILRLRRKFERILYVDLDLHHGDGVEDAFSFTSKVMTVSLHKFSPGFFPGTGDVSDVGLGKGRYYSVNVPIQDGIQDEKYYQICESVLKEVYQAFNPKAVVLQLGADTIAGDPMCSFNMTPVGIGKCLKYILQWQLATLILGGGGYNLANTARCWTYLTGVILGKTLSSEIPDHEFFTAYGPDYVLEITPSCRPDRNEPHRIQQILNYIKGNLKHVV
The experiment in a line: Inhibition of HDAC8 in human Jurkat T cells assessed as upregulation of KLRG expression at 10 uM after 6 to 12 hrs by RT-qPCR analysis. To be noted: time 6-12 hrs. Type of data set: cell-based.

Data set [2] concerns the target T1, Histone deacetylase 8 (Homo sapiens). Put plainly: Inhibition of HDAC8 in human Jurkat T cells assessed as increase in H3K27 acetylation at 10 uM after 6 hrs by Western blot analysis. The class given is cell-based. For orientation: In western blotting, separated proteins are transferred to a membrane and probed.
The nature of data set [3]: Toxicity in C57BL/6 mouse assessed as change in liver weight at 5 to 10 mg/kg, ip administered 5 days per week for 2 weeks by H and E staining based assay. To be noted: in vivo, 336 h, dose 5-10 mg/kg. The class given is organism-based.
Data set [4] addresses T1, Histone deacetylase 8 (Homo sapiens). Put plainly: Inhibition of HDAC8 in human Jurkat T cells assessed as upregulation of GATA3 expression after 6 hrs by RT-qPCR analysis. The class given is cell-based. To be noted: dose 0.1-10 µM, DDE = dose-dependent effect. On the technique in general: Quantitative PCR measures a nucleic acid by following its amplification.
Data set [5] can be described thus: Stability of compound in DMEM/DMSO/acetonitrile at pH 7.4 measured after 24 hrs by HPLC analysis. Type of data set: physicochemical. To be noted: read-out: Stability.
The nature of data set [6]: Stability of compound in DMEM/DMSO/acetonitrile at pH 7.4 measured after 12 hrs by HPLC analysis. Type of data set: physicochemical. To be noted: read-out: Stability.
Data set [7] concerns the target T1, Histone deacetylase 8 (Homo sapiens). Put plainly: Inhibition of HDAC8 in human Jurkat T cells assessed as upregulation of IL15 expression after 6 hrs by RT-qPCR analysis. Type of data set: cell-based. To be noted: dose 0.1-10 µM, DDE = dose-dependent effect.
The nature of data set [8]: Toxicity in C57BL/6 mouse assessed as change in kidney weight at 5 to 10 mg/kg, ip administered 5 days per week for 2 weeks by H and E staining based assay. To be noted: in vivo, 336 h, dose 5-10 mg/kg. The class given is organism-based.
Data set [9] deals with T1, Histone deacetylase 8 (Homo sapiens). Put plainly: Inhibition of HDAC8 in human Jurkat T cells assessed as upregulation of IL10 expression after 6 hrs by RT-qPCR analysis. Type of data set: cell-based. To be noted: dose 0.1-10 µM, DDE = dose-dependent effect.
Data set [10] has the same target. The experiment in a line: Inhibition of HDAC8 in human Jurkat T cells assessed as upregulation of TBX21 expression after 6 hrs by RT-qPCR analysis. Type of data set: cell-based. To be noted: dose 0.1-10 µM, DDE = dose-dependent effect.
Data set [11] can be described thus: Stability of compound in DMEM/DMSO/acetonitrile at pH 7.4 measured after 6 hrs by HPLC analysis. To be noted: read-out: Stability. The class given is physicochemical.
The nature of data set [12]: Toxicity in C57BL/6 mouse assessed as change in spleen weight at 5 to 10 mg/kg, ip administered 5 days per week for 2 weeks by H and E staining based assay. Type of data set: organism-based. To be noted: in vivo, 336 h, dose 5-10 mg/kg.
In another data set the test system is Mus musculus. Put plainly: Immuno-modulatory activity in C57BL/6 mouse assessed as increase in proportion of CD3+ cells in spleen at 10 mg/kg, ip administered 5 days per week for 2 weeks by flow cytometry analysis. Type of data set: functional, organism-based.
Data set [13] can be described thus: Toxicity in C57BL/6 mouse assessed as change in heart weight at 5 to 10 mg/kg, ip administered 5 days per week for 2 weeks by H and E staining based assay. Type of data set: organism-based. To be noted: in vivo, 336 h, dose 5-10 mg/kg.
Data set [14] deals with T1, Histone deacetylase 8 (Homo sapiens). The experiment in a line: Inhibition of HDAC8 in human Jurkat T cells assessed as upregulation of BCL6 expression after 6 hrs by RT-qPCR analysis. Type of data set: cell-based. The settings on record: dose 0.1-10 µM, DDE = dose-dependent effect.
For data set [15] the target is unchanged. The experiment in a line: Inhibition of HDAC8 in human Jurkat T cells assessed as upregulation of BCL6 expression at 10 uM after 6 to 12 hrs by RT-qPCR analysis. The class given is cell-based. The settings on record: time 6-12 hrs.
Data set [16] can be described thus: Toxicity in C57BL/6 mouse assessed as change in stomach weight at 5 to 10 mg/kg, ip administered 5 days per week for 2 weeks by H and E staining based assay. The settings on record: in vivo, 336 h, dose 5-10 mg/kg. The class given is organism-based.
Data set [17] deals with T1, Histone deacetylase 8 (Homo sapiens). The experiment in a line: Inhibition of HDAC8 in human Jurkat T cells assessed as upregulation of IL23 expression after 6 hrs by RT-qPCR analysis. To be noted: dose 0.1-10 µM, DDE = dose-dependent effect. The class given is cell-based.
A further data set has as its target T2, Histone deacetylase 8 (Homo sapiens, UniProt Q9BY41).
T2 sequence (Q9BY41 whole entry): T1 sequence (whole entry)
The experiment in a line: Competitive inhibition of human HDAC8 using Abz-SRGGK(STFA)FFRR-NH2 (S) as substrate by Lineweaver-burk plot analysis.

Data set [18] has as its target T1, Histone deacetylase 8 (Homo sapiens). The experiment in a line: Inhibition of HDAC8 in human Jurkat T cells assessed as upregulation of IL-7R expression at 10 uM after 6 to 12 hrs by RT-qPCR analysis. The class given is cell-based. To be noted: time 6-12 hrs.

The structures appear in SMILES notation. Activity calls are given as the source filed them. The calls are words filed in the database; no cut-off is given here.

For `CCCCCCNNC(=O)c1ccc(-c2ccc(CNC(C)=O)cc2)cc1`, the Cell viability in the data set with HEK293 is reported as 121.3%. For the same compound, the inhibition result in [1], in [2], in data set [15] and in data set [18] was “Active” each time. Besides, the Activity result in data set [3], in data set [8], in data set [12], in [13] and in [16] was “Non-Toxic” each time. The inhibition result in data set [4], in data set [7], in [9], in data set [10], in [14] and in data set [17] was “Dde” in each case. The remaining at 24 h in data set [5] came to 105%. In addition, the remaining at 12 h in data set [6] is 104%. In data set [11], the remaining at 6 h is 103%. In the data set with Mus musculus, the outcome was Active. On Histone deacetylase 8, the affinity corresponds to a Ki of 30.6 nM.
